In brackets after ≈: the same amount, converted by molar mass.
How the values were obtained:
[1] = system: Bacteroides caccae; test: Antibacterial activity against beta-lactamase producing Bacteroides caccae by CLSI agar dilution method; assay type: functional
[2] = system: Clostridium paraputrificum; test: Antibacterial activity against beta-lactamase producing Clostridium paraputrificum assessed as susceptible isolates by CLSI agar dilution method; assay type: functional
[3] = system: Clostridium septicum; test: Antibacterial activity against beta-lactamase producing Clostridium septicum assessed as susceptible isolates by CLSI agar dilution method; assay type: functional
[4] = system: Bacteroides caccae; test: Antibacterial activity against beta-lactamase producing Bacteroides caccae assessed as susceptible isolates by CLSI agar dilution method; assay type: functional
[5] = system: Phocaeicola vulgatus; test: Antibacterial activity against beta-lactamase producing Bacteroides vulgatus assessed as resistant isolates by CLSI agar dilution method; assay type: functional
[6] = system: Finegoldia magna; test: Antibacterial activity against beta-lactamase producing Finegoldia magna by CLSI agar dilution method; assay type: functional
[7] = system: Fusobacterium necrophorum; test: Antibacterial activity against Fusobacterium necrophorum assessed as resistant isolates by CLSI agar dilution method; assay type: functional
[8] = system: Bacteroides uniformis; test: Antibacterial activity against beta-lactamase producing Bacteroides uniformis assessed as resistant isolates by CLSI agar dilution method; assay type: functional
[9] = system: Prevotella melaninogenica; test: Antibacterial activity against Prevotella melaninogenica assessed as susceptible isolates by CLSI agar dilution method; assay type: functional
[10] = system: Veillonella parvula; test: Antibacterial activity against Veillonella parvula by CLSI agar dilution method; assay type: functional
[11] = system: Fusobacterium nucleatum; test: Antibacterial activity against Fusobacterium nucleatum assessed as susceptible isolates by CLSI agar dilution method; assay type: functional
[12] = system: Clostridium septicum; test: Antibacterial activity against beta-lactamase producing Clostridium septicum assessed as resistant isolates by CLSI agar dilution method; assay type: functional
[13] = system: Peptoniphilus asaccharolyticus; test: Antibacterial activity against beta-lactamase producing Peptoniphilus asaccharolyticus by CLSI agar dilution method; assay type: functional
[14] = system: Prevotella melaninogenica; test: Antibacterial activity against Prevotella melaninogenica assessed as resistant isolates by CLSI agar dilution method; assay type: functional
[15] = system: Fusobacterium nucleatum; test: Antibacterial activity against Fusobacterium nucleatum by CLSI agar dilution method; assay type: functional
[16] = system: Bacteroides fragilis; test: Antibacterial activity against Bacteroides fragilis assessed as susceptible isolates by CLSI agar dilution method; assay type: functional
[17] = system: Bacteroides thetaiotaomicron; test: Antibacterial activity against beta-lactamase producing Bacteroides thetaiotaomicron assessed as susceptible isolates by CLSI agar dilution method; assay type: functional
[18] = system: Prevotella bivia; test: Antibacterial activity against Prevotella bivia by CLSI agar dilution method; assay type: functional
[19] = system: Fusobacterium necrophorum; test: Antibacterial activity against Fusobacterium necrophorum assessed as susceptible isolates by CLSI agar dilution method; assay type: functional
[20] = system: Bacteroides thetaiotaomicron; test: Antibacterial activity against beta-lactamase producing Bacteroides thetaiotaomicron by CLSI agar dilution method; assay type: functional
[21] = system: Phocaeicola vulgatus; test: Antibacterial activity against beta-lactamase producing Bacteroides vulgatus by CLSI agar dilution method; assay type: functional
[22] = system: Bacteroides thetaiotaomicron; test: Antibacterial activity against beta-lactamase producing Bacteroides thetaiotaomicron assessed as resistant isolates by CLSI agar dilution method; assay type: functional
[23] = system: Prevotella bivia; test: Antibacterial activity against Prevotella bivia assessed as resistant isolates by CLSI agar dilution method; assay type: functional
[24] = system: Peptostreptococcus anaerobius; test: Antibacterial activity against beta-lactamase producing Peptostreptococcus anaerobius assessed as resistant isolates by CLSI agar dilution method; assay type: functional
[25] = system: Bacteroides caccae; test: Antibacterial activity against beta-lactamase producing Bacteroides caccae assessed as resistant isolates by CLSI agar dilution method; assay type: functional
[26] = system: Fusobacterium mortiferum; test: Antibacterial activity against Fusobacterium mortiferum assessed as susceptible isolates by CLSI agar dilution method; assay type: functional
[27] = system: Prevotella intermedia; test: Antibacterial activity against Prevotella intermedia by CLSI agar dilution method; assay type: functional
[28] = system: Prevotella intermedia; test: Antibacterial activity against Prevotella intermedia assessed as susceptible isolates by CLSI agar dilution method; assay type: functional
[29] = system: Finegoldia magna; test: Antibacterial activity against beta-lactamase producing Finegoldia magna assessed as resistant isolates by CLSI agar dilution method; assay type: functional
[30] = system: Parvimonas micra; test: Antibacterial activity against beta-lactamase producing Micromonas micros by CLSI agar dilution method; assay type: functional
[31] = system: Clostridium paraputrificum; test: Antibacterial activity against beta-lactamase producing Clostridium paraputrificum assessed as resistant isolates by CLSI agar dilution method; assay type: functional
[32] = system: Finegoldia magna; test: Antibacterial activity against beta-lactamase producing Finegoldia magna assessed as susceptible isolates by CLSI agar dilution method; assay type: functional
[33] = system: Clostridium tertium; test: Antibacterial activity against beta-lactamase producing Clostridium tertium by CLSI agar dilution method; assay type: functional
[34] = system: Fusobacterium nucleatum; test: Antibacterial activity against Fusobacterium nucleatum assessed as resistant isolates by CLSI agar dilution method; assay type: functional
[35] = system: Fusobacterium varium; test: Antibacterial activity against Fusobacterium varium by CLSI agar dilution method; assay type: functional
[36] = system: Parvimonas micra; test: Antibacterial activity against beta-lactamase producing Micromonas micros assessed as resistant isolates by CLSI agar dilution method; assay type: functional
[37] = system: Bacteroides uniformis; test: Antibacterial activity against beta-lactamase producing Bacteroides uniformis assessed as susceptible isolates by CLSI agar dilution method; assay type: functional
[38] = system: Peptostreptococcus anaerobius; test: Antibacterial activity against beta-lactamase producing Peptostreptococcus anaerobius by CLSI agar dilution method; assay type: functional
[39] = system: Bacteroides fragilis; test: Antibacterial activity against Bacteroides fragilis assessed as resistant isolates by CLSI agar dilution method; assay type: functional
[40] = system: Prevotella buccae; test: Antibacterial activity against Prevotella buccae assessed as susceptible isolates by CLSI agar dilution method; assay type: functional, Segatella buccae
[41] = system: Clostridium paraputrificum; test: Antibacterial activity against beta-lactamase producing Clostridium paraputrificum by CLSI agar dilution method; assay type: functional
[42] = system: Clostridium tertium; test: Antibacterial activity against beta-lactamase producing Clostridium tertium assessed as resistant isolates by CLSI agar dilution method; assay type: functional
[43] = system: Prevotella buccae; test: Antibacterial activity against Prevotella buccae by CLSI agar dilution method; assay type: functional; conditions: Segatella buccae
[44] = system: Peptoniphilus asaccharolyticus; test: Antibacterial activity against beta-lactamase producing Peptoniphilus asaccharolyticus assessed as resistant isolates by CLSI agar dilution method; assay type: functional
[45] = system: Fusobacterium varium; test: Antibacterial activity against Fusobacterium varium assessed as resistant isolates by CLSI agar dilution method; assay type: functional
[46] = system: Prevotella bivia; test: Antibacterial activity against Prevotella bivia assessed as susceptible isolates by CLSI agar dilution method; assay type: functional
[47] = system: Parvimonas micra; test: Antibacterial activity against beta-lactamase producing Micromonas micros assessed as susceptible isolates by CLSI agar dilution method; assay type: functional
[48] = system: Clostridium perfringens; test: microbe, parasite or virus in culture; assay type: functional
[49] = system: Fusobacterium varium; test: Antibacterial activity against Fusobacterium varium assessed as susceptible isolates by CLSI agar dilution method; assay type: functional
[50] = system: Peptostreptococcus anaerobius; test: Antibacterial activity against beta-lactamase producing Peptostreptococcus anaerobius assessed as susceptible isolates by CLSI agar dilution method; assay type: functional
[51] = system: Clostridium septicum; test: Antibacterial activity against beta-lactamase producing Clostridium septicum by CLSI agar dilution method; assay type: functional
[52] = system: Bacteroides uniformis; test: Antibacterial activity against beta-lactamase producing Bacteroides uniformis by CLSI agar dilution method; assay type: functional
[53] = system: Bacteroides fragilis; test: Antibacterial activity against Bacteroides fragilis by CLSI agar dilution method; assay type: functional
[54] = system: Phocaeicola vulgatus; test: Antibacterial activity against beta-lactamase producing Bacteroides vulgatus assessed as susceptible isolates by CLSI agar dilution method; assay type: functional
[55] = system: Clostridium tertium; test: Antibacterial activity against beta-lactamase producing Clostridium tertium assessed as susceptible isolates by CLSI agar dilution method; assay type: functional
[56] = system: Fusobacterium mortiferum; test: Antibacterial activity against Fusobacterium mortiferum assessed as resistant isolates by CLSI agar dilution method; assay type: functional
[57] = system: Fusobacterium mortiferum; test: Antibacterial activity against Fusobacterium mortiferum by CLSI agar dilution method; assay type: functional
[58] = system: Peptoniphilus asaccharolyticus; test: Antibacterial activity against beta-lactamase producing Peptoniphilus asaccharolyticus assessed as susceptible isolates by CLSI agar dilution method; assay type: functional
[59] = system: Fusobacterium necrophorum; test: Antibacterial activity against Fusobacterium necrophorum by CLSI agar dilution method; assay type: functional
[60] = system: Prevotella buccae; test: Antibacterial activity against Prevotella buccae assessed as resistant isolates by CLSI agar dilution method; assay type: functional, Segatella buccae
[61] = system: Prevotella intermedia; test: Antibacterial activity against Prevotella intermedia assessed as resistant isolates by CLSI agar dilution method; assay type: functional
[62] = system: Prevotella melaninogenica; test: Antibacterial activity against Prevotella melaninogenica by CLSI agar dilution method; assay type: functional

With `C[C@@H](O)[C@H]1C(=O)N2C(C(=O)O)=C(S[C@@H]3CN[C@H](C(=O)Nc4cccc(C(=O)O)c4)C3)[C@H](C)[C@H]12` the MIC50 [1] was 1 µg/mL (≈ 2.1 µM), the MIC90 [1] was 2 µg/mL (≈ 4.21 µM) and the Activity [2] was 96%. It also gave an Activity [3] of 96%, an Activity [4] of 92% and an Activity [5] of 4%. The MIC50 [6] was 0.06 µg/mL (≈ 0.126 µM), the MIC90 [6] was 1 µg/mL (≈ 2.1 µM) and the Activity [7] was 0%. For the same molecule, the Activity [8] was 4%, the Activity [9] was 100% and the MIC [10] was 0.03 µg/mL (≈ 0.0631 µM). The Activity [11] was 100%, the Activity [12] was 0% and the MIC50 [13] was 0.06 µg/mL (≈ 0.126 µM). For the same molecule, the MIC90 [13] was 1 µg/mL (≈ 2.1 µM), the Activity [14] was 0% and the MIC50 [15] was 0.06 µg/mL (≈ 0.126 µM). For the same molecule, the MIC90 [15] was 0.12 µg/mL (≈ 0.252 µM), the Activity [16] was 90% and the Activity [17] was 97%. The MIC50 [18] was 0.12 µg/mL (≈ 0.252 µM), the MIC90 [18] was 0.5 µg/mL (≈ 1.05 µM) and the Activity [19] was 100%. For the same molecule, the MIC50 [20] was 1 µg/mL (≈ 2.1 µM), the MIC90 [20] was 4 µg/mL (≈ 8.41 µM) and the MIC50 [21] was 1 µg/mL (≈ 2.1 µM). It also gave an MIC90 [21] of 2 µg/mL (≈ 4.21 µM), an Activity [22] of 3% and an Activity [23] of 0%. It also gave an Activity [24] of 0%, an Activity [25] of 4% and an Activity [26] of 100%. The MIC50 [27] was 0.12 µg/mL (≈ 0.252 µM), the MIC90 [27] was 0.5 µg/mL (≈ 1.05 µM) and the Activity [28] was 100%. For the same molecule, the Activity [29] was 0%, the MIC50 [30] was 0.06 µg/mL (≈ 0.126 µM) and the MIC90 [30] was 1 µg/mL (≈ 2.1 µM). For the same molecule, the Activity [31] was 0%, the Activity [32] was 100% and the MIC50 [33] was 0.12 µg/mL (≈ 0.252 µM). It also gave an MIC90 [33] of 4 µg/mL (≈ 8.41 µM), an Activity [34] of 0% and an MIC50 [35] of 0.06 µg/mL (≈ 0.126 µM). For the same molecule, the MIC90 [35] was 0.12 µg/mL (≈ 0.252 µM), the Activity [36] was 0% and the Activity [37] was 92%. It also gave an MIC50 [38] of 0.06 µg/mL (≈ 0.126 µM), an MIC90 [38] of 1 µg/mL (≈ 2.1 µM) and an Activity [39] of 5%. For the same molecule, the Activity [40] was 100%, the MIC50 [41] was 0.12 µg/mL (≈ 0.252 µM) and the MIC90 [41] was 4 µg/mL (≈ 8.41 µM). The Activity [42] was 0%, the MIC50 [43] was 0.12 µg/mL (≈ 0.252 µM) and the MIC90 [43] was 0.5 µg/mL (≈ 1.05 µM). It also gave an Activity [44] of 0%, an Activity [45] of 0% and an Activity [46] of 100%. For the same molecule, the Activity [47] was 100%, the MIC50 [48] was 0.12 µg/mL (≈ 0.252 µM) and the MIC90 [48] was 4 µg/mL (≈ 8.41 µM). For the same molecule, the Activity [49] was 100%, the Activity [50] was 100% and the MIC50 [51] was 0.12 µg/mL (≈ 0.252 µM). The MIC90 [51] was 4 µg/mL (≈ 8.41 µM), the MIC50 [52] was 1 µg/mL (≈ 2.1 µM) and the MIC90 [52] was 2 µg/mL (≈ 4.21 µM). It also gave an MIC50 [53] of 0.25 µg/mL (≈ 0.526 µM), an MIC90 [53] of 4 µg/mL (≈ 8.41 µM) and an Activity [54] of 92%. The Activity [55] was 96%, the Activity [56] was 0% and the MIC50 [57] was 0.06 µg/mL (≈ 0.126 µM). The MIC90 [57] was 0.12 µg/mL (≈ 0.252 µM), the Activity [58] was 100% and the MIC50 [59] was 0.06 µg/mL (≈ 0.126 µM). The MIC90 [59] was 0.12 µg/mL (≈ 0.252 µM), the Activity [60] was 0% and the Activity [61] was 0%. It also gave an MIC50 [62] of 0.12 µg/mL (≈ 0.252 µM) and an MIC90 [62] of 0.5 µg/mL (≈ 1.05 µM).

— ChEMBL document CHEMBL1671627, “Increasing trends in antimicrobial resistance among clinically important anaerobes and Bacteroides fragilis isolates causing nosocomial infections: emerging resistance to carbapenems” (2008)
